According to the NIST ThermoML archive (doi:10.1021/je700119m):
Numbers after ± are expanded uncertainties.

Key:
[1] = 298.15 K, 101.33 kPa, Liquid
[2] = refractive index (Na D-line) (dimensionless); settings: 298.15 K; 101.33 kPa; Liquid; Standard Abbe refractometry

Compound | mass density [1] [kg/m3] | refractive index [2] | mass density ([1]; Vibrating tube method) [kg/m3]
CCC(C)=O [butanone] | 799.7 ± 0.6 | 1.37618 ± 0.00068 | 
CCO [ethanol] | 785.1 ± 0.5 | 1.35929 ± 0.00068 | 
CC(C)O [propan-2-ol] |  | 1.37496 ± 0.00068 | 781 ± 0.4

More lines, now with the values ahead:

mass density [1] [kg/m3] | refractive index [2] | mass density ([1]; Vibrating tube method) [kg/m3] | Compound
1327.2 ± 2.7 | 1.4827 ± 0.00078 |  | COS(=O)(=O)[O-].Cn1cc[n+](C)c1 [1,3-dimethylimidazolium methylsulfate]
1367.3 ± 2.9 | 1.40937 ± 0.00078 |  | CCCCn1cc[n+](C)c1.F[P-](F)(F)(F)(F)F [1-butyl-3-methylimidazolium hexafluorophosphate]
